Assay results as given in article PMC9738796, “Design of Conjugates Based on Sesquiterpene Lactones with Polyalkoxybenzenes by “Click” Chemistry to Create Potential Anticancer Agents” (Molecules, 2022).
Where two headings read alike, the source gives them in different places.

How the values were obtained:
[1] = tested on: SH-SY5Y (neuroblastoma); experiment: MTT cell viability, SH-SY5Y; format: cell-based; settings: Homo sapiens, 24 h
Source text: (§1) In this study we used human cell culture of tumor origin—SH-SY5Y (neuroblastoma), HeLa (cervical tumor), Hep-2 (larynx carcinoma), A549 (adenocarcinomic human alveolar basal epithelial cells); and normal cell line Hek 293 (human embryonic kidneys)), provided by the Laboratory of Tumor Cell Genetics of the Scientific Research Institute of Carcinogenesis, N.N. Blokhin National Medical Research Center of Oncology, as well as the Institute of Cytology of the Russian Academy of Sciences. While being grown for experiments, cells were cultured at 37 °C in a humidified CO2 atmosphere (5%) in a nutrient medium DMEM (PanEco, Moscow, Russia) and MEM (PanEco, Moscow, Russia), containing fetal bovine serum (10% by volume) (Thermo Fisher Scientific, Paisley, UK), Glutamax (2 mM) (Gibco, Renfrewshire, UK), and penicillin-streptomycin (1% by volume) (PanEco, Moscow, Russia).
(§2) Cell viability was determined by MTT test as described earlier. Cells were seeded in a 96-well plate in the amount of 1 × 10^4 cells/200 µL and cultured at 37 °C in a humidified CO2 atmosphere (5%) in a nutrient medium DMEM (PanEco, Moscow, Russia) and MEM (PanEco, Moscow, Russia). After 24 h of incubation, […] aliquots of test compounds ([…]) dissolved in DMSO were added to the cell cultures, and cells were cultured under the same conditions for 24 h. […] DMSO also was added to the control wells in a volume of 1%.
(§3) After 24 h, […] of MTT (3-(4,5-dimethylthiazol-2-yl)-2,5-diphenyltetrazolium bromide, 5 mg/mL) was added to each well and the plates were additionally incubated for 2 h.
(§4) Using a plate analyzer (Cytation3, BioTek Instruments Inc., Winooski, VT, USA), the optical density was determined at 530 nm. The concentration value causing 50% inhibition of cell population growth (IC50) was determined from dose-dependent curves.

[2] = tested on: HeLa (cervical tumor); experiment: MTT cell viability, HeLa; format: cell-based; settings: Homo sapiens, 24 h
Source text: as §1, §2, §3, §4

[3] = tested on: Hep-2 (larynx carcinoma); experiment: MTT cell viability, Hep-2; format: cell-based; settings: Homo sapiens, 24 h
Source text: as §1, §2, §3, §4

[4] = tested on: A549 (adenocarcinomic human alveolar basal epithelial cells); experiment: MTT cell viability, A549; format: cell-based; settings: 24 h
Source text: as §1, §2, §3, §4

[5] = tested on: Hek 293 (human embryonic kidneys); experiment: MTT cell viability, normal Hek 293; format: cell-based; settings: HEK293, 24 h
Source text: as §1, §2, §3, §4

[6] = tested on: SH-SY5Y cells; experiment: Glycolysis flux assay (Seahorse ECAR); format: cell-based, human; settings: for glycolytic capacity (ECAR change relative to control): SH-SY5Y (Figure 3c); for decrease in ECAR: 100 µM, SH-SY5Y, kinetic curves (Figure 3d,e)
Experimental: The ability of compounds to suppress anaerobic glycolysis was studied using the Agilent Seahorse XF96e Analyzer (Seahorse Bioscience, Billerica, MA, USA) by the level of hydrogen proton production in the studied samples on cell lines of neuroblastoma SH-SY5Y [55].
The 30,000 SH-SY5Y cells per well were plated in an XF cell culture microplate (Seahorse Bioscience, Billerica, MA, USA). After plating cells, the microplate was kept overnight in a 37 °C, 5% CO2 incubator. On the following day the medium was aspirated, the cells washed and placed in serum-free, pyruvate-free and glucose-free medium (pH = 7.4). The microplate was kept for 45 min again in a 37° C, 5% CO2 incubator.
When SH-SY5Y cells were analyzed, we followed the procedure described in the Seahorse Glycolysis Stress Test kit. Briefly, initial extracellular acidification rate (ECAR) measurements were taken in the absence of glucose. […] This was followed by an injection of oligomycin from port C so that the final concentration of oligomycin in each well was […]. Lastly, a 25 mM final concentration of 2-deoxyglucose was injected from port D.
Data for each experimental condition derive from values obtained from a minimum of 5 separate wells.

[7] = tested on: all cell lines (SH-SY5Y, HeLa, Hep-2, A549, Hek 293); experiment: MTT cytotoxicity, summary over all cell lines; format: cell-based; settings: Homo sapiens; span over all cell lines
Source text: as §1
Cell viability was determined by MTT test as described earlier. Cells were seeded in a 96-well plate in the amount of 1 × 10^4 cells/200 µL and cultured at 37 °C in a humidified CO2 atmosphere (5%) in a nutrient medium DMEM (PanEco, Moscow, Russia) and MEM (PanEco, Moscow, Russia). […]
Using a plate analyzer (Cytation3, BioTek Instruments Inc., Winooski, VT, USA), the optical density was determined at 530 nm. […]

[8] = tested on: HeLa (cervical tumor); settings: HeLa column; cited from earlier work

SMILES	IC50 [1] [µM]	IC50 [2] [µM]	IC50 [3] [µM]	IC50 [4] [µM]	IC50 [5] [µM]	glycolytic capacity (ECAR change relative to control) ([6]; 100 μM)	decrease in ECAR [6]	glycolysis (ECAR change relative to control) ([6]; 100 μM, SH-SY5Y (Figure 3b))	IC50 [7] [µM]	IC50 [8] [µM]
C=C1CCC2C(CNCCn3cc(COCc4ccc5c(c4)OCO5)nn3)C(=O)OC2C2C(=C)CCC12 [6a, (3R,3aS,9bS)-3-(((2-(4-((Benzo[d][1, 3]dioxol-5-ylmethoxy)methyl)-1H-1,2,3-triazol-1-yl)ethyl)amino)methyl)-6,9-dimethylenedecahydroazuleno [4,5-b]furan-2(9bH)-one]	37.35 ± 0.28	62.4 ± 0.05	88.1 ± 2.66	85.65 ± 0.38	57 ± 1.24	reaching a minimum	more than 50%			
C=C1CC[C@H]2[C@H](CNCCn3cc(COCc4ccc(OC)cc4)nn3)C(=O)O[C@@H]2C2C(=C)CCC12 (stereo partly drawn) [6b, (3R,3aS,9bS)-3-(((2-(4-(((4-Methoxybenzyl)oxy)methyl)-1H-1,2,3-triazol-1-yl)ethyl)amino)methyl)-6,9-dimethylenedecahydroazuleno [4,5-b]furan-2(9bH)-one]	36.3 ± 2.38	61.52 ± 0.12	> 100	> 100	56.4 ± 1.03					
C=C1CC[C@H]2[C@H](CNCCn3cc(COCc4cccc(OC)c4OC)nn3)C(=O)O[C@@H]2C2C(=C)CCC12 (stereo partly drawn) [6c, (3R,3aS,9bS)-3-(((2-(4-(((2,3-Dimethoxybenzyl)oxy)methyl)-1H-1,2,3-triazol-1-yl)ethyl)amino)methyl)-6,9-dimethylenedecahydroazuleno [4,5-b]furan-2(9bH)-one]	94.9 ± 1.08	82.4 ± 1.14	> 100	> 100	59.8 ± 1.37					
C=C1CC[C@H]2[C@H](CNCCn3cc(COCc4ccc(OC)c(OC)c4)nn3)C(=O)O[C@@H]2C2C(=C)CCC12 (stereo partly drawn) [6d, (3R,3aS,9bS)-3-(((2-(4-(((3,4-Dimethoxybenzyl)oxy)methyl)-1H-1,2,3-triazol-1-yl)ethyl)amino)methyl)-6,9-dimethylenedecahydroazuleno [4,5-b]furan-2(9bH)-one]	57.8 ± 1.71	> 100	> 100	> 100	69.47 ± 0.54			reaching a minimum		
C[C@H]1CCC[C@]2(C)C[C@H]3OC(=O)C(CNCCn4cc(COCc5ccc6c(c5)OCO6)nn4)[C@H]3C=C12 (some centres unmarked) [7a]	33.6 ± 1.27	39 ± 1.27	55.68 ± 0.52	29.3 ± 1.37	38.9 ± 1.23		more than 50%		29 to 55	
COc1ccc(COCc2cn(CCNC[C@H]3C(=O)O[C@@H]4C[C@@]5(C)CCC[C@H](C)C5=C[C@@H]43)nn2)cc1 [7b, (3S,3aR,5S,8aR,9aR)-3-(((2-(4-(((4-Methoxybenzyl)oxy)methyl)-1H-1,2,3-triazol-1-yl)ethyl)amino)methyl)-5,8a-dimethyl-3,3a,6,7,8,8a,9,9a-octahydronaphtho [2,3-b]furan-2(5H)-one]	41.7 ± 1.73	55.1 ± 0.94	67.16 ± 0.14	47.3 ± 1.52	42.3 ± 1.09					
COc1cccc(COCc2cn(CCNC[C@H]3C(=O)O[C@@H]4C[C@@]5(C)CCC[C@H](C)C5=C[C@@H]43)nn2)c1OC [7c, (3S,3aR,5S,8aR,9aR)-3-(((2-(4-(((2,3-Dimethoxybenzyl)oxy)methyl)-1H-1,2,3-triazol-1-yl)ethyl)amino)methyl)-5,8a-dimethyl-3,3a,6,7,8,8a,9,9a-octahydronaphtho [2,3-b]furan-2(5H)-one]	40 ± 1.32	46.6 ± 0.81	62.6 ± 0.72	53.11 ± 0.25	46.25 ± 0.22					
COc1ccc(COCc2cn(CCNC[C@H]3C(=O)O[C@@H]4C[C@@]5(C)CCC[C@H](C)C5=C[C@@H]43)nn2)cc1OC [7d, (3S,3aR,5S,8aR,9aR)-3-(((2-(4-(((3,4-Dimethoxybenzyl)oxy)methyl)-1H-1,2,3-triazol-1-yl)ethyl)amino)methyl)-5,8a-dimethyl-3,3a,6,7,8,8a,9,9a-octahydronaphtho [2,3-b]furan-2(5H)-one]	45.2 ± 1.24	81 ± 3.17	91 ± 2.85	83.5 ± 1.09	35.39 ± 0.29					
C=C1CC[C@H]2C(CNCc3cn(Cc4ccc5c(c4)OCO5)nn3)C(=O)O[C@@H]2C2C(=C)CCC12 (some centres unmarked) [10a]	19.3 ± 0.57	18 ± 0.32	> 100	> 100	58.04 ± 0.07		more than 50%			
C=C1CC[C@H]2C(CNCc3cn(Cc4ccc(OC)cc4)nn3)C(=O)O[C@@H]2C2C(=C)CCC12 (some centres unmarked) [10b]	16.1 ± 0.46	16.6 ± 0.59	26.3 ± 0.38	25.2 ± 3.44	56.65 ± 0.05					
C=C1CC[C@H]2C(CNCc3cn(Cc4cccc(OC)c4OC)nn3)C(=O)O[C@@H]2C2C(=C)CCC12 (some centres unmarked) [10c]	89.5 ± 2.57	79.59 ± 0.33	> 100	> 100	66.29 ± 0.08					
C=C1CC[C@H]2C(CNCc3cn(Cc4ccc(OC)c(OC)c4)nn3)C(=O)O[C@@H]2C2C(=C)CCC12 (some centres unmarked) [10d]	21.83 ± 0.02	26.4 ± 2.39	82.2 ± 1.15	> 100	> 100					
C[C@H]1CCC[C@]2(C)C[C@H]3OC(=O)C(CNCc4cn(Cc5ccc6c(c5)OCO6)nn4)[C@H]3C=C12 (some centres unmarked) [11a]	71.8 ± 2	88.86 ± 0.21	> 100	95.9 ± 1.5	61.43 ± 0.1	reaching a minimum	more than 50%			
COc1ccc(Cn2cc(CNCC3C(=O)O[C@@H]4C[C@@]5(C)CCC[C@H](C)C5=C[C@H]34)nn2)cc1 (some centres unmarked) [11b]	60.38 ± 0.39	72.79 ± 0.07	> 100	70.3 ± 1.17	49.55 ± 0.33					
COc1cccc(Cn2cc(CNCC3C(=O)O[C@@H]4C[C@@]5(C)CCC[C@H](C)C5=C[C@H]34)nn2)c1OC (some centres unmarked) [11c]	> 100	88.2 ± 1.27	> 100	> 100	67.91 ± 0.65					
COc1ccc(Cn2cc(CNCC3C(=O)O[C@@H]4C[C@@]5(C)CCC[C@H](C)C5=C[C@H]34)nn2)cc1OC (some centres unmarked) [11d]	56.1 ± 1.06	89.35 ± 0.4	> 100	91.2 ± 1.54	59.6 ± 1.84					
C=C1C(=O)O[C@@H]2[C@H]3C(C)=CC[C@@]34O[C@@]4(C)CC[C@@H]12 [Arglabin, arglabin, reference compound]	34 ± 2.48		29.9 ± 0.93		78 ± 2.05					20
